Each block holds one molecule with its values, some of them ahead of it.
Assays:
VEGFR-2 kinase = biological target: T1, VEGFR-2 kinase (Homo sapiens, UniProt P35968); assay: In vitro VEGFR-2 kinase inhibitory assay (ELISA kit); format: biochemical; details: human VEGFR-2 ELISA kit; median of three experiments
T1 construct: purchased

breast cancer (MCF-7) = assay: In vitro anti-proliferative MTT assay, MCF-7; details: Homo sapiens, MCF7, 24 h, read-out: IC50 MCF-7
Description: (§6) This test was carried out on three different human cancer cell lines: MCF-7, HCT116, and HepG2 using the MTT method [66].
(§7) This test was carried out on three different human cancer cell lines: MCF-7, HCT116, and HepG2, We performed this colorimetric experiment with quantitative assessment of anticancer activity in accordance with the MTT method [1] The assay is based primarily on a biochemical reaction in which mitochondrial succinate dehydrogenase transforms yellow tetrazolium bromide (MTT) to a purple formazan derivative in live cells.
(§8) with 10% foetal bovine serum in general. In a 5 percent CO2 incubator at 37 °C, penicillin (100 units/mL) and streptomycin (100g/mL) were introduced. The cells were seeded at a density of 1.0x10^4 cells/well in a 96-well plate at 37 C for 48 hours under 5% CO2. […] The cells were given varying concentrations of the novel compounds and cultured for 24 hours. Then we add 20 l of MTT in a 5 mg/ml solution and let it sit for 4 hours.
(§9) 100 µl of DMSO was applied to each well to dissolve the purple formazan produced.
(§10) curve for each conc. using Graphpad Prism software (San Diego, CA. USA). The data presented are the mean of at least three separate experiments.
(§11) The IC50 of the selected derivatives were determined against VEGFR-2 kinase with enzyme linked immunosorbent assay (ELISA). We used a human VEGFR-2 ELISA kit. VEGFR-2 specific antibody was seeded on a 96 well microplate and 100 μL of solution of the standard or the tested compound was added. After incubation for 2.5 h. at room temperature and washing, 100 μL of prepared biotin antibody was added. Incubation of the plates for 1 h at room temperature and then washing were carried out before addition of streptavidin solution (100 μL). The mixture was incubated for 1h at room temperature and then washed. After that, 100 μL of tetramethybenzidine (TMB) substrate solution was added before incubation for half an hour at room temperature.
(§12) Finally, 50 μL of the stop solution was added immediately before the reading at 450 nm.
(§13) Percent inhibition was calculated by the comparison of compounds treated to control

[1] = tested on: hepatocellular carcinoma (HepG2); assay: In vitro anti-proliferative MTT assay, HepG2; details: Homo sapiens, HepG2, 24 h, read-out: IC50 HepG2
Description: as §6, §7, §8, §9, §10, §11, §12, §13

[2] = tested on: colorectal carcinoma (HCT116); assay: In vitro anti-proliferative MTT assay, HCT116; details: Homo sapiens, HCT-116, 24 h, read-out: IC50 HCT116
Description: as §6, §7, §8, §9, §10, §11, §12, §13

TNF-α = TNF-α level in HepG2 cells by qRT-PCR; format: cell-based; details: Homo sapiens, 2.43 µM for 24 h
Description: (§1) The inhibition of these mediators caused apoptosis of tumor cells. Therefore, further investigation was conducted to see how compound 8 affect these cytokines (TNF-α and IL-6). Compound 8d was added to HepG2 cells at a concentration of 2.43 µM for 24 h, then the levels of TNF-α and IL-6 were measured using the qRT-PCR method.
(§2) The effects of 8d on TNF-α and IL-6 were determined using the qRT-PCR technique. The Supplementary data provides further detailed information about the study. […]
(§3) HepG2 cells were cultured according to the methodology described by Wang et al. The cells were planted and cultured for 24 h in six-well plates. Each well had 2 × 10^5 cells in it. Then 10% fetal bovine serum (FBS) was added, and the cells were incubated at 37 °C with 5% CO2.
(§4) The medium was then changed. DMSO (1% v/v) containing 2.43 μM of compound 8d was substituted. Following that, the cells were rinsed in cold phosphate buffered saline. […]
(§5) 1.5. Quantitative Real Time Reverse-Transcriptase PCR (qRT-PCR) technique The effects of compound 8d on the expression of TNF-α and IL-6 were determined using qRT-PCR technique. The quantity of immunomodulatory proteins (TNF-α and IL-6) in control and compound 8d (at the IC50 concentration)-treated HepG2 cells was assessed by qRT-PCR (reference). […]

IL-6 = IL-6 level in HepG2 cells by qRT-PCR; format: cell-based; details: Homo sapiens, 2.43 µM for 24 h
Description: as §1, §2, §3, §4, §5

HepG2 cells = assay: HepG2 cell cycle analysis (PI flow cytometry); format: cell-based, human; details: 2.43 μM of compound
Description: The most promising candidate, compound 8d, was further evaluated by analyzing its effect on cycle phases of the HepG2 cells. From the results presented in Table 3, it can be noticed that a large percentage (70.23%) of cells treated with 8d was accumulated at the pre-G1 phase compared to the 2.70% reported for control cells. This clearly indicates the ability of compound 8d to inhibit HepG2 cell proliferation efficiently at the pre-G1 phase (Figure 5).
HepG2 Cell Cycle Analysis was performed for compound 8d according to the methodology reported by Wang et al.. The Supplementary data provides further detailed information about the study. […]
as §3
The medium was then changed. DMSO (1% v/v) containing 2.43 μM of compound 8d was substituted. Following that, the cells were rinsed in cold phosphate buffered saline. (PBS), then fixed in 70% ethyl alcohol, washed in PBS, and […]. After that, the DNA fluorochrome propidium iodide (PI) was maintained at […] for 1 5 minutes at 37 °C. A FACS Caliber flow cytometer was used to analyze the samples. […]

T1 sequence (P35968 20-1356): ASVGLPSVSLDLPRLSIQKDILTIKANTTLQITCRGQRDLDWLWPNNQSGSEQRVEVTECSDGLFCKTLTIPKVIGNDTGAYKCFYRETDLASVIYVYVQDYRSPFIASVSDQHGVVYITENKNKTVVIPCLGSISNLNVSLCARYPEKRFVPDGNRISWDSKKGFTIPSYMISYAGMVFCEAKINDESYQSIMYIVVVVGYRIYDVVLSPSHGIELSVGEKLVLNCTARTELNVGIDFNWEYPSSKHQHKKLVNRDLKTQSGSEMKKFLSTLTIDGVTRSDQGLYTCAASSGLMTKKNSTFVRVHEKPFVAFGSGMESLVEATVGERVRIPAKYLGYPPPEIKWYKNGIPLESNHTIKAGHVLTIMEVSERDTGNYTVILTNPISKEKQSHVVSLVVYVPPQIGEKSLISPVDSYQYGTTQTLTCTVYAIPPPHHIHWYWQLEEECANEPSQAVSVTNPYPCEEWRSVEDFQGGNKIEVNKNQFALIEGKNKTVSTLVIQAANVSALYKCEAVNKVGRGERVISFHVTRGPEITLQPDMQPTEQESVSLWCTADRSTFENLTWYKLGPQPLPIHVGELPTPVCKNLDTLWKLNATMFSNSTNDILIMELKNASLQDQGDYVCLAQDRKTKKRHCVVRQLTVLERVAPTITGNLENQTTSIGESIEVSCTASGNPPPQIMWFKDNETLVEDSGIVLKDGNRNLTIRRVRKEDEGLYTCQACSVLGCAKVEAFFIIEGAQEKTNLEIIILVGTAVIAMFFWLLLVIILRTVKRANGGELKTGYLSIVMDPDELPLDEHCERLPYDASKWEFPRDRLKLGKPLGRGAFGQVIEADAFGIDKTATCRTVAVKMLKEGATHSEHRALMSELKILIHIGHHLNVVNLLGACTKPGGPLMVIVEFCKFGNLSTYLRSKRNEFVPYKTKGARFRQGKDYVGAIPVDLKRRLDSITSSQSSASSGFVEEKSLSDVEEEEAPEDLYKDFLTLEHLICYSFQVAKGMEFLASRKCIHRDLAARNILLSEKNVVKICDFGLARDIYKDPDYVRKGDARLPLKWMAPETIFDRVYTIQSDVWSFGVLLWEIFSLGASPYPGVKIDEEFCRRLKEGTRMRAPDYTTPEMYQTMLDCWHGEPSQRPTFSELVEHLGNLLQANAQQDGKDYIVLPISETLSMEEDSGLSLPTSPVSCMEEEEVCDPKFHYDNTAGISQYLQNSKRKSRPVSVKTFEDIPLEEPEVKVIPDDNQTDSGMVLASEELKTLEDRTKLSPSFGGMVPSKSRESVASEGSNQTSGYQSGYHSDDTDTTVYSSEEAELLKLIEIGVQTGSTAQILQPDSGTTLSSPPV

Structure (SMILES): O=C(CSc1nc2cc(Cl)ccc2o1)Nc1ccc(C(=O)Nc2ccc([N+](=O)[O-])cc2)cc1 [Compound 8e, 4-(2-((5-Chlorobenzo[d]oxazol-2-yl)thio)acetamido)-N-(4-nitrophenyl) benzamide]
- IC50 (VEGFR-2 kinase): 0.0741 µM
- IC50 (breast cancer (MCF-7)): 5.69 ± 0.44 µM
- IC50 [1]: 4.51 ± 0.35 µM
- IC50 [2]: 3.29 ± 0.26 µM

Structure (SMILES): C[C@@H]1C[C@H]2[C@@H]3CCC4=CC(=O)C=C[C@]4(C)[C@@]3(F)[C@@H](O)C[C@]2(C)[C@@]1(O)C(=O)CO [Dexamethasone, reference compound]
- inhibition at 2.43 µM (TNF-α): 82.5%
- inhibition at 2.43 µM (IL-6): 93.2%

Structure (SMILES): O=C(CSc1nc2ccccc2o1)Nc1ccc(C(=O)Nc2ccc([N+](=O)[O-])cc2)cc1 [Compound 8d, 4-(2-(Benzo[d]oxazol-2-ylthio)acetamido)-N-(4-nitrophenyl)benzamide]
- %Pre-G1 (HepG2 cells; control 2.70): 70.23%
- %G2-M (HepG2 cells; control 19.31): 19.1%
- %G0–G1 (HepG2 cells; control 39.81): 31.1%
- %S (HepG2 cells; control 40.88): 49.8%
- inhibition at 2.43 µM (TNF-α): 90.5%
- inhibition at 2.43 µM (IL-6): 92.2%
- IC50 (breast cancer (MCF-7)): 3.43 ± 0.15 µM
- IC50 [1]: 2.43 ± 0.16 µM
- IC50 [2]: 2.79 ± 0.19 µM

Structure (SMILES): Cc1ccc(NC(=O)c2ccc(NC(=O)CSc3nc4cc(Cl)ccc4o3)cc2)cc1 [Compound 8b, 4-(2-((5-Chlorobenzo[d]oxazol-2-yl)thio)acetamido)-N-(p-tolyl)benzamide]
- IC50 (breast cancer (MCF-7)): 12.4 ± 0.92 µM
- IC50 [1]: 10.4 ± 0.92 µM
- IC50 [2]: 11.6 ± 0.91 µM

Structure (SMILES): Cc1ccc(NC(=O)c2ccc(NC(=O)CSc3nc4cc(C)ccc4o3)cc2)cc1 [Compound 8c, 4-(2-((5-Methylbenzo[d]oxazol-2-yl)thio)acetamido)-N-(p-tolyl)benzamide]
- IC50 (VEGFR-2 kinase): 1.14 µM
- IC50 (breast cancer (MCF-7)): 9.15 ± 0.85 µM
- IC50 [1]: 8.16 ± 0.77 µM
- IC50 [2]: 6.12 ± 0.55 µM

Structure (SMILES): Cc1ccc(NC(=O)c2ccc(NC(=O)CSc3nc4ccccc4o3)cc2)cc1 [Compound 8a, 4-(2-(Benzo[d]oxazol-2-ylthio)acetamido)-N-(p-tolyl)benzamide]
- IC50 (VEGFR-2 kinase): 0.0579 µM
- IC50 (breast cancer (MCF-7)): 9.49 ± 0.75 µM
- IC50 [1]: 10.4 ± 0.98 µM
- IC50 [2]: 10.1 ± 0.95 µM

More lines, now with the values ahead:

- IC50 [1]: 3.4 ± 0.25 µM
- IC50 [2]: 5.3 ± 0.44 µM
Structure (SMILES): CNC(=O)c1cc(Oc2ccc(NC(=O)Nc3ccc(Cl)c(C(F)(F)F)c3)cc2)ccn1 [Sorafenib, reference compound]

- IC50 (breast cancer (MCF-7)): 12.5 ± 1.1 µM
- IC50 [1]: 8.44 ± 0.65 µM
- IC50 [2]: 10.4 ± 0.92 µM
Structure (SMILES): CC(=O)c1ccc(NC(=O)c2ccc(NC(=O)CSc3nc4cc(Cl)ccc4o3)cc2)cc1 [Compound 8g, N-(4-Acetylphenyl)-4-(2-((5-chlorobenzo[d]oxazol-2-yl)thio)acetamido) benzamide]

- IC50 (breast cancer (MCF-7)): 12.5 ± 1.05 µM
- IC50 [1]: 11.2 ± 0.95 µM
- IC50 [2]: 14.2 ± 1.2 µM
Structure (SMILES): O=C(CSc1nc2ccccc2o1)Nc1ccc(C(=O)NCCc2ccccc2)cc1 [Compound 8l, 4-(2-(Benzo[d]oxazol-2-ylthio)acetamido)-N-phenethylbenzamide]

- IC50 (VEGFR-2 kinase): 0.204 µM
- IC50 (breast cancer (MCF-7)): 4.97 ± 0.32 µM
- IC50 [1]: 4.41 ± 0.35 µM
- IC50 [2]: 4 ± 0.33 µM
Structure (SMILES): Cc1ccc2oc(SCC(=O)Nc3ccc(C(=O)Nc4ccc([N+](=O)[O-])cc4)cc3)nc2c1 [Compound 8f, 4-(2-((5-Methylbenzo[d]oxazol-2-yl)thio)acetamido)-N-(4-nitrophenyl) benzamide]

- IC50 (breast cancer (MCF-7)): 16.9 ± 1.5 µM
- IC50 [1]: 14.2 ± 1.1 µM
- IC50 [2]: 18.2 ± 1.5 µM
Structure (SMILES): O=C(CSc1nc2cc(Cl)ccc2o1)Nc1ccc(C(=O)NCc2ccccc2)cc1 [Compound 8j, N-Benzyl-4-(2-((5-chlorobenzo[d]oxazol-2-yl)thio)acetamido)benzamide]

- IC50 (breast cancer (MCF-7)): 25.8 ± 2.1 µM
- IC50 [1]: 28.6 ± 2.1 µM
- IC50 [2]: 16.4 ± 1.3 µM
Structure (SMILES): Cc1ccc2oc(SCC(=O)Nc3ccc(C(=O)NCCc4ccccc4)cc3)nc2c1 [Compound 8m, 4-(2-((5-Methylbenzo[d]oxazol-2-yl)thio)acetamido)-N-phenethylbenzamide]

- IC50 (VEGFR-2 kinase): 0.317 µM
- IC50 (breast cancer (MCF-7)): 10 ± 0.95 µM
- IC50 [1]: 5.92 ± 0.47 µM
- IC50 [2]: 8.53 ± 0.77 µM
Structure (SMILES): O=C(CSc1nc2ccccc2o1)Nc1ccc(C(=O)NCc2ccccc2)cc1 [Compound 8i, 4-(2-(Benzo[d]oxazol-2-ylthio)acetamido)-N-benzylbenzamide]

- IC50 (VEGFR-2 kinase): 0.114 µM
- IC50 (breast cancer (MCF-7)): 3.53 ± 0.28 µM
- IC50 [1]: 2.76 ± 0.18 µM
- IC50 [2]: 2.94 ± 0.19 µM
Structure (SMILES): CC(=O)c1ccc(NC(=O)c2ccc(NC(=O)CSc3nc4cc(C)ccc4o3)cc2)cc1 [Compound 8h, N-(4-Acetylphenyl)-4-(2-((5-methylbenzo[d]oxazol-2-yl)thio)acetamido) benzamide]

- IC50 (VEGFR-2 kinase): 0.653 µM
- IC50 (breast cancer (MCF-7)): 8.37 ± 0.77 µM
- IC50 [1]: 10.1 ± 0.93 µM
- IC50 [2]: 8.09 ± 0.71 µM
Structure (SMILES): Cc1ccc2oc(SCC(=O)Nc3ccc(C(=O)NCc4ccccc4)cc3)nc2c1 [Compound 8k, N-Benzyl-4-(2-((5-methylbenzo[d]oxazol-2-yl)thio)acetamido)benzamide]
